Measured values taken from patent US5550128A, “Enantiomers of gamma methylene 10-deaza aminopterin and process for preparing the same” (priority 1994, dated 1996).

Legend:
[1] = test system: SW-620 (colon cancer); experiment: Human Disease Oriented in vitro Antitumor Screen; assay type: cell-based; conditions: SW-620 (Table 5), read-out: Gl50 (the source's name)
Experimental: (§1) Further, by analogy to methotrexate (rheumatrex) L-MDAM should be useful in the treatment of autoimmune diseases such as rheumatoid arthritis and inflammatory diseases such as asthma.
(§2) A 48 h continuous drug exposure protocol was used combined with an SR13
(§3) protein assay to estimate cell growth or viability.

[2] = test system: CCRF-CEM (leukemia); experiment: Human Disease Oriented in vitro Antitumor Screen; assay type: cell-based; conditions: CCRF-CEM (Table 5), read-out: Gl50 (the source's name)
Experimental: as §1, §2, §3

[3] = test system: LOX IM VI (melanoma); experiment: Human Disease Oriented in vitro Antitumor Screen; assay type: cell-based; conditions: LOX IMVI, LOX MI VI (Table 5), read-out: Gl50 (the source's name)
Experimental: as §1, §2, §3

[4] = test system: HL-60 (TB) (leukemia); experiment: Human Disease Oriented in vitro Antitumor Screen; assay type: cell-based; conditions: HL-60 TB (Table 5), read-out: Gl50 (the source's name)
Experimental: as §1, §2, §3

[5] = test system: ACHN (renal cancer); experiment: Human Disease Oriented in vitro Antitumor Screen; assay type: cell-based; conditions: ACHN (Table 5), read-out: Gl50 (the source's name)
Experimental: as §1, §2, §3

[6] = test system: 786-O (renal cancer); experiment: Human Disease Oriented in vitro Antitumor Screen; assay type: cell-based; conditions: 786-0, 786-O (Table 5), read-out: Gl50 (the source's name)
Experimental: as §1, §2, §3

[7] = test system: HT-29 (colon cancer); experiment: Human Disease Oriented in vitro Antitumor Screen; assay type: cell-based; conditions: HT-29 (Table 5), read-out: Gl50 (the source's name)
Experimental: as §1, §2, §3

[8] = test system: SF-268; experiment: Human Disease Oriented in vitro Antitumor Screen; assay type: cell-based; conditions: SF-268 (Table 5), read-out: Gl50 (the source's name)
Experimental: as §1, §2, §3

[9] = test system: SR (leukemia); experiment: Human Disease Oriented in vitro Antitumor Screen; assay type: cell-based; conditions: SR (Table 5), read-out: Gl50 (the source's name)
Experimental: as §1, §2, §3

[10] = test system: OVCAR-8 (ovarian cancer); experiment: Human Disease Oriented in vitro Antitumor Screen; assay type: cell-based; conditions: OVCAR-8 (Table 5), read-out: Gl50 (the source's name)
Experimental: as §1, §2, §3

[11] = test system: SF-295; experiment: Human Disease Oriented in vitro Antitumor Screen; assay type: cell-based; conditions: SF-295 (Table 5), read-out: Gl50 (the source's name)
Experimental: as §1, §2, §3

[12] = test system: HCT-116 (colon cancer); experiment: Human Disease Oriented in vitro Antitumor Screen; assay type: cell-based; conditions: HCT-116 (Table 5), read-out: Gl50 (the source's name)
Experimental: as §1, §2, §3

[13] = test system: SF-539; experiment: Human Disease Oriented in vitro Antitumor Screen; assay type: cell-based; conditions: SF-539 (Table 5), read-out: Gl50 (the source's name)
Experimental: as §1, §2, §3

[14] = test system: MOLT-4 (leukemia); experiment: Human Disease Oriented in vitro Antitumor Screen; assay type: cell-based; conditions: MOLT-4 (Table 5), read-out: Gl50 (the source's name)
Experimental: as §1, §2, §3

[15] = test system: SN-12C (renal cancer); experiment: Human Disease Oriented in vitro Antitumor Screen; assay type: cell-based; conditions: SN12C, SN-12C (Table 5), read-out: Gl50 (the source's name)
Description: (§4) It is also active against the adriamycin resistant MCF-7 human breast cancer cells (Gl50 -=74×10^-9).
(§5) Human Disease Oriented in vitro Antitumor Screen

[16] = test system: OVCAR-5 (ovarian cancer); experiment: Human Disease Oriented in vitro Antitumor Screen; assay type: cell-based; conditions: OVCAR-5 (Table 5), read-out: Gl50 (the source's name)
Description: as §4, §5

[17] = test system: M14 (melanoma); experiment: Human Disease Oriented in vitro Antitumor Screen; assay type: cell-based; conditions: M14 (Table 5), read-out: Gl50 (the source's name)
Description: as §4, §5

[18] = test system: U-251 (CNS cancer); experiment: Human Disease Oriented in vitro Antitumor Screen; assay type: cell-based; conditions: U-251 (Table 5), read-out: Gl50 (the source's name)
Description: as §4, §5

[19] = test system: DU 145 (prostate cancer); experiment: Human Disease Oriented in vitro Antitumor Screen; assay type: cell-based; conditions: DU 145 (Table 5), read-out: Gl50 (the source's name)
Description: as §4, §5

[20] = test system: HCT-15 (colon cancer); experiment: Human Disease Oriented in vitro Antitumor Screen; assay type: cell-based; conditions: HCT-15 (Table 5), read-out: Gl50 (the source's name)
Description: as §4, §5

[21] = test system: RPMI-8226 (leukemia); experiment: Human Disease Oriented in vitro Antitumor Screen; assay type: cell-based; conditions: RPMI-8226 (Table 5), read-out: Gl50 (the source's name)
Description: as §4, §5

[22] = test system: IGROVI (ovarian cancer); experiment: Human Disease Oriented in vitro Antitumor Screen; assay type: cell-based; conditions: IGROVI (Table 5), read-out: Gl50 (the source's name)
Description: as §4, §5

[23] = test system: MDA-N (breast cancer); experiment: Human Disease Oriented in vitro Antitumor Screen; assay type: cell-based; conditions: MDA-N (Table 5), read-out: Gl50 (the source's name)
Description: as §4, §5

[24] = test system: NCI-H460 (non-small cell lung cancer); experiment: Human Disease Oriented in vitro Antitumor Screen; assay type: cell-based; conditions: NCI-H460 (Table 5), read-out: Gl50 (the source's name)
Description: as §4, §5

[25] = test system: ZIACC-62 (melanoma); experiment: Human Disease Oriented in vitro Antitumor Screen; assay type: cell-based; conditions: ZIACC-62 (Table 5), read-out: Gl50 (the source's name)
Description: as §4, §5

[26] = test system: MDA-MB-231/ATCC (breast cancer); experiment: Human Disease Oriented in vitro Antitumor Screen; assay type: cell-based; conditions: MDA-MB-231/ATCC (Table 5), read-out: Gl50 (the source's name)
Description: as §4, §5

[27] = test system: TK-10 (renal cancer); experiment: Human Disease Oriented in vitro Antitumor Screen; assay type: cell-based; conditions: TK-10 (Table 5), read-out: Gl50 (the source's name)
Description: as §4, §5

[28] = test system: HOP-62 (non-small cell lung cancer); experiment: Human Disease Oriented in vitro Antitumor Screen; assay type: cell-based; conditions: HOP-62 (Table 5), read-out: Gl50 (the source's name)
Description: as §4, §5

[29] = test system: MCF-7 (breast cancer); experiment: Human Disease Oriented in vitro Antitumor Screen; assay type: cell-based; conditions: MCF7, MCF-7 (Table 5), read-out: Gl50 (the source's name)
Description: as §4, §5

[30] = test system: adriamycin resistant MCF-7 human breast cancer cells (MCF-7/ADR-RBS); experiment: Human Disease Oriented in vitro Antitumor Screen, adriamycin resistant cells; assay type: cell-based; conditions: MCF7, read-out: Gl50 (the source's name)
Description: as §4, §5

[31] = test system: human tumor cell lines in culture; experiment: Human Tumor Disease Oriented in vitro screen, panel as a whole; assay type: cell-based; conditions: relative to methotrexate, or enantiomer comparison
Experimental: as §1, §2, §3

[32] = test system: transport of radiolabeled folinic acid to H35 hepatoma cells; experiment: Inhibition of transport of radiolabeled folinic acid to H35 hepatoma cells; assay type: cell-based
Experimental: (§6) Independent, further evidences to the identity of L-MDAM as the biologically active enantiomer of the racemic mixture of D,L-MDAM (previously described as MDAM; Ref, U.S. Pat. No. 4,996,207) was obtained by the following data. […] The cytotoxicity of L-MDAM versus D,L-MDAM was also compared. […] The l50 value for growth inhibition (Gl50) was 39 nM for D,L-MDAM. […] Taken together, these unexpected and novel results establish that the biologically active compound present in the racemic mixture of MDAM is the L-enantiomer described in claim number 1.

[33] = molecular target: T1, Recombinant Human Dihydrofolate Reductase (Homo sapiens, UniProt P00374); experiment: Inhibition of recombinant human dihydrofolate reductase, spectrophotometric enzyme assay; assay type: biochemical
T1 sequence (P00374 1-187): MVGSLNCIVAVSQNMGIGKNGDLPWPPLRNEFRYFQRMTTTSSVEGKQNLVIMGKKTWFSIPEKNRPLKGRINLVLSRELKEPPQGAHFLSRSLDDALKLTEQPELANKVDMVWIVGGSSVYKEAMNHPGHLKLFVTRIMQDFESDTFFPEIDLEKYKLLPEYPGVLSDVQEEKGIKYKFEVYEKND
Experimental: Enzyme assay was performed spectrophotometrically in a solution containin
50 μM dihydrofolate, 80 μM NADPH, 0.05 M Tris HCl. 0.01 M
2mercaptoethanol and 0.001 M EDTA at pH 7.4 at 30°. The reaction
Pure human recombinant enzyme was used.

[34] = test system: H35 hepatoma cells; experiment: Growth inhibition of H35 hepatoma cells in culture; assay type: cell-based
Experimental: as §6

Work on `C=C(C[C@H](NC(=O)c1ccc(CCc2cnc3nc(N)nc(N)c3n2)cc1)C(=O)O)C(=O)O` [L-MDAM, 4-amino-4-deoxy-10-deazapteroyl-γ-methylene-L-glutamic acid] yielded an IC50 [1] of under 0.01 µM, an IC50 [2] of under 0.01 µM and an IC50 [3] of under 0.01 µM. It also gave an IC50 [4] of under 0.01 µM, an IC50 [5] of under 0.01 µM and an IC50 [6] of under 0.01 µM. It also gave an IC50 [7] of under 0.01 µM, an IC50 [8] of under 0.01 µM and an IC50 [9] of under 0.01 µM. The IC50 [10] was under 0.01 µM, the IC50 [11] was under 0.01 µM and the IC50 [12] was under 0.01 µM. The IC50 [13] was under 0.01 µM, the IC50 [14] was under 0.01 µM and the IC50 [15] was under 0.01 µM. The IC50 [16] was under 0.01 µM, the IC50 [17] was under 0.01 µM and the IC50 [18] was under 0.01 µM. The IC50 [19] was under 0.01 µM, the IC50 [20] was under 0.01 µM and the IC50 [21] was under 0.01 µM. It also gave an IC50 [22] of under 0.01 µM, an IC50 [23] of under 0.01 µM and an IC50 [24] of under 0.01 µM. It also gave an IC50 [25] of under 0.01 µM, an IC50 [26] of under 0.01 µM and an IC50 [27] of under 0.01 µM. The IC50 [28] was under 0.01 µM, the IC50 [29] was under 0.01 µM and the IC50 [30] was 0.074 µM. The “activity/potency in inhibiting growth of human tumor cell lines (in words)” value [31] was “biologically active enantiomer of D,L-MDAM”, the IC50 ([32]; H35 hepatoma cells, read-out: l50 value, inhibition of transport of radiolabeled folinic acid) was 2.3 µM and the “reduction in l50 value (transport) versus D,L-MDAM” value ([32]; L-MDAM versus D,L-MDAM) was “approximately one-half”. The IC50 ([33]; 50 μM dihydrofolate, 80 μM NADPH, pH 7.4, 30°) was 0.022 µM, the “IC50 Compound/IC50 MTX” value ([33]; ratio to MTX) was 1.29 and the “DHFR inhibitory activity (comparison in words)” value ([33]; relative to MTX or D,L-MDAM) was “exactly twice as active as D,L-MDAM”. The “cytotoxicity versus D,L-MDAM” value ([34]; H35 hepatoma cells) was “Dramatic and unexpected potentiation of activity” and the IC50 ([34]; H35 hepatoma cells in culture, identical conditions, read-out: l50 value for growth inhibition (Gl50)) was 0.008 µM.
